{"source": "patent US5747536A", "about": "“Pharmaceutical composition comprising L-carnitine or derivative thereof and trihydroxy or tetrahydroxystilbene” (Sigma-Tau Industrie Farmaceutiche Riunite S.p.A., priority 1995, dated 1998)", "key": {"[1]": {"test_system": "atherosclerotic vascular lesions (aorta)", "assay": "Experimental atherosclerosis induced by atherogenic diet (Malinow method)", "assay_type": "in vivo", "details": "atherogenic diet for 6 consecutive weeks; male Wistar rats"}, "[2]": {"test_system": "platelet-rich plasma (PRP)", "assay": "Platelet aggregation induced by collagen in platelet-rich plasma, photometric (Born)", "assay_type": "cell-based, human (volunteers)", "details": "collagen 2.5 ng/ml, 10 minutes of incubation", "experimental": "Platelet-rich plasma (PRP) was obtained from the blood of volunteers by centrifuging the plasma at 145 x g for 5 min at 22° C. The number of platelets was determined using a CA 580A (Delcon) Platelet Counter. The number of platelets was brought down to a fixed value of […] by adding platelet-poor plasma (PPP). PPP was obtained by centrifuging blood at 1600 x g for 10 min at 22° C.\nPlatelet aggregation was determined photometrically (Born G.V.R., Nature 194, 927, 1962) using an Elvi 840 aggregometer in plastic test tubes under continual stirring at 1000 rpm. The maximum light transmission (100%) was measured with PPP readings, whereas 0% transmission was measured with PRP readings.\nThe degree of aggregation of PRP induced by the aggregating agent (collagen at 2.5 to 5 ng/ml) was calculated as a percentage of maximum transmission of light obtained with PPP using […] PRP samples.\nAggregation was measured in basal conditions and after 10 minutes of incubation with L-carnitine, resveratrol, grape extract, and combinations of these preparations."}, "[3]": {"details": "Kimura et al. 1983; cited from earlier work"}, "[4]": {"test_system": "production of thromboxanes and leukotrienes; synthesis of eicosanoids", "details": "cited from earlier work"}, "lipo-oxygenases": {"test_system": "lipo-oxygenases", "details": "Kimura et al. 1985; cited from earlier work"}, "[5]": {"test_system": "platelet aggregation induced by collagen or ADP", "details": "Fitzpatrick et al. 1993; cited from earlier work"}, "formation of nitroxides": {"test_system": "formation of nitroxides", "details": "Fitzpatrick et al. 1993; cited from earlier work"}, "cyclo-oxygeNases": {"test_system": "cyclo-oxygeNases", "details": "Kimura et al. 1985; cited from earlier work"}}, "data": [{"smiles": "C[N+](C)(C)C[C@H](O)CC(=O)[O-]", "note": "[carnitine, L-carnitine]", "values": [{"measurement": "atherosclerotic vascular lesions (in words)", "setting": "[1]", "result": "reduced"}, {"measurement": "effect on platelet aggregation (in words)", "setting": "[2]", "result": "no significant change"}]}, {"smiles": "Oc1ccc(C=Cc2cc(O)cc(O)c2)cc1", "note": "[resveratrol, 3,4',5-trihydroxystilbene]", "values": [{"measurement": "atherosclerotic vascular lesions (in words)", "setting": "[1]", "result": "reduced"}, {"measurement": "antihyperoxidative ability (in words)", "setting": "[3]", "result": "antihyperoxidative ability"}, {"measurement": "IC50", "setting": "[2]; Homo sapiens, Platelet, 10 min, read-out: ED50, inhibition of the platelet aggregation induced by collagen", "result": 3.5, "unit": "ng/mL"}, {"measurement": "production of thromboxanes and leukotrienes (in words)", "setting": "[4]; Kimura et al. 1985", "result": "reduction in the production of thromboxanes and leukotrienes"}, {"measurement": "synthesis of eicosanoids (in words)", "setting": "[4]; background statement", "result": "ability to modulate the synthesis of eicosanoids"}, {"measurement": "inhibition of lipo-oxygenases (in words)", "setting": "lipo-oxygenases", "result": "inhibit"}, {"measurement": "inhibition of platelet aggregation induced by collagen or ADP (in words)", "setting": "[5]", "result": "inhibiting platelet aggregation induced by collagen or ADP"}, {"measurement": "formation of nitroxides with a vasodilatory action (in words)", "setting": "formation of nitroxides", "result": "promoting the formation of nitroxides with a vasodilatory action"}, {"measurement": "inhibition of cyclo-oxygenases (in words)", "setting": "cyclo-oxygeNases", "result": "inhibit"}]}]}
